Experimental data from patent publication US8258140B2 (Astrazeneca AB, priority 2009, dated 2012).

Target: T1, Androgen Receptor (AR) in the LNCaP prostate carcinoma cell line (Homo sapiens, UniProt P10275, T878A)
T1 construct: cell based immuno-fluorescence assay using the LNCaP prostate epithelial cell line; host or cells: LNCaP clone FGC
T1 sequence (P10275 1-920 T878A): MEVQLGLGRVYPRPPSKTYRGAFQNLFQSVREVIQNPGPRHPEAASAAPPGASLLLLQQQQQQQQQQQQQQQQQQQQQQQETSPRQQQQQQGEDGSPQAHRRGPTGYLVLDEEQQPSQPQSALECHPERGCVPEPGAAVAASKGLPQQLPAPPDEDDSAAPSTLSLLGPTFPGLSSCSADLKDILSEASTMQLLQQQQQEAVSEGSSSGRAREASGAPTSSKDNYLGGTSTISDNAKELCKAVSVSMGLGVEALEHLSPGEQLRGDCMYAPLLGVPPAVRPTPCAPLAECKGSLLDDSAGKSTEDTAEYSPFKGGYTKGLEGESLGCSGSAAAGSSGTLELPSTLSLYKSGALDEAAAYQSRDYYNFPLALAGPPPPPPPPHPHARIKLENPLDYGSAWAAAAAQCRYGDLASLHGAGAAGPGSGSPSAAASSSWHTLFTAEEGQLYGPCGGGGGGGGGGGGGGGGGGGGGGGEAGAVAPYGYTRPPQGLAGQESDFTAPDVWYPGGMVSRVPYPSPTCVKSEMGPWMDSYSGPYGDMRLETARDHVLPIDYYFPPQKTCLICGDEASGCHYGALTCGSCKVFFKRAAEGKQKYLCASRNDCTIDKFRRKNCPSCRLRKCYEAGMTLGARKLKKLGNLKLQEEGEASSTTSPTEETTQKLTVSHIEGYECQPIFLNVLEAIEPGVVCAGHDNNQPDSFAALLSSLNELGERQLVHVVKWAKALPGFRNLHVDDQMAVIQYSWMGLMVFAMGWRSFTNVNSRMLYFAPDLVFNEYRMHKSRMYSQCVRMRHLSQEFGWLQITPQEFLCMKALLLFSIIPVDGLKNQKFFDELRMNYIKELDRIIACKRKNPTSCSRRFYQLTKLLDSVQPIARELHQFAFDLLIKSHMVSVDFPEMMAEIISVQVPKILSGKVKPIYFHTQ
Assay: LNCaP Androgen Receptor Down-Regulation Cell Assay (immunofluorescence end point)
Type: cell-based
Conditions: LNCaP cells, compound incubation 20-22 hours, concentration giving 50% reduction of the AR signal
Method in brief: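 LNCaP cells (6.5×10^3/well) in phenol-red-free RPMI with 5% charcoal-stripped FBS were treated with compound dilutions for 20–22 h at 37 °C. They were then formaldehyde-fixed, permeabilised, blocked and immunostained for AR with monoclonal antibody AR441.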

Row | SMILES | IC50
1 | CC(=O)N1CCN(CCOc2ccc(C3CCN(C4=Nn5c(nnc5C(F)(F)F)CC4)CC3)cc2)C[C@H]1C [Example 51, 6-[4-(4-{2-[(3R)-4-acetyl-3-methylpiperazin-1-yl]ethoxy}phenyl)piperidin-1-yl]-3-(trifluoromethyl)-7,8-dihydro[1,2,4]triazolo[4,3-b]pyridazine] | 0.25 µM
2 | CC(=O)N1CCN(CCOc2ccc(C3CCN(C4=Nn5c(nnc5C(F)(F)F)CC4)CC3)cc2)CC1 [Example 5.1, 6-(4-{4-[2-(4-acetylpiperazin-1-yl)ethoxy]phenyl}piperidin-1-yl)-3-(trifluoromethyl)-7,8-dihydro[1,2,4]triazolo[4,3-b]pyridazine] | 1.8 µM
3 | CN1CCN(CCOc2ccc(C3CCN(C4=Nn5c(nnc5C(F)(F)F)CC4)CC3)cc2)CC1=O [Example 37, 1-methyl-4-[2-(4-{1-[3-(trifluoromethyl)-7,8-dihydro[1,2,4]triazolo[4,3-b]pyridazin-6-yl]piperidin-4-yl}phenoxy)ethyl]piperazin-2-one] | 1.7 µM
4 | CC(=O)N1CCN(CCCOc2ccc(C3CCN(C4=Nn5c(nnc5C(F)(F)F)CC4)CC3)cc2)CC1 [Example 4.1, 6-[4-[4-[3-(4-acetylpiperazin-1-yl)propoxy]phenyl]piperidin-1-yl]-3-(trifluoromethyl)-7,8-dihydro[1,2,4]triazolo[4,3-b]pyridazine] | 1.2 µM
